The nature of this data set: Stability of JAK3 covalent inhibitors in human whole blood.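 Note: parent compound remaining over incubation time quantified by LC-MS/MS as peak area ratio against an internal standard, using pooled K2-EDTA blood.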 In kind it is in vitro ADME. The settings on record: both sexes, whole blood, 37° C., read-out: Human blood stability t1/2.
Source text: Stability of JAK3 Covalent Inhibitors in Rat and Human Whole Blood
Rat blood was collected from 3 male Sprague-Dawley rats (200-250 g, Charles River Laboratories) and pooled for each study. Human blood was collected from one male and one female healthy subjects at the Occupational Health & Wellness Center at Pfizer, Groton, CT and pooled for each study. Both rat and human blood was collected freshly into K2-EDTA tubes and kept on ice. An aliquot of the blood was transferred to microtubes and pre-warmed for 10 min at 37° C. using a heat block. […] An aliquot of the incubation mixture was removed at designated time points during the course of the incubation, mixed with an aliquot of acetonitrile containing an internal standard, vortexed and centrifuged. The resulting supernatants were removed and subjected to LC-MS/MS analyses to determine parent compound concentrations. Peak area ratios of the parent compound vs the internal standard were used to determine the % of parent compound remaining vs incubation time.
Consider `C=CC(=O)N1CCC(Nc2cnc3[nH]cc(C(=O)NC(C)(C)C)c3n2)C[C@@H]1C` (mixture of isomers) [Example 340], for which the half-life at 1 μM was greater than 6 h.

With `C=CC(=O)N1C[C@@H](C)C[C@@H](Nc2ncnc3[nH]ccc23)C1` (racemic) [Example 22, rac-cis-1-((3R,5S)-3-((7H-Pyrrolo[2,3-d]pyrimidin-4-yl)amino)-5-methylpiperidin-1-yl)prop-2-en-1-one], the half-life at 1 μM was 5.78 h.

For the compound `C=CC(=O)N1CC[C@H](C)[C@@H](Nc2ncnc3[nH]ccc23)C1` (racemic) [Example 50, 1-[(3R,4S)-4-methyl-3-(7H-pyrrolo[2,3-d]pyrimidin-4-ylamino)piperidin-1-yl]prop-2-en-1-one], the half-life at 1 μM is greater than 6 h.

On to `C=CC(=O)N1C[C@H](C)C[C@@H](Nc2ncnc3[nH]ccc23)C1` (racemic) [Example 65, Rac-1-((3R,5R)-3-((7H-Pyrrolo[2,3-d]pyrimidin-4-yl)amino)-5-methylpiperidin-1-yl)prop-2-en-1-one], for which the half-life at 1 μM was 4.45 h.

With `C=CC(=O)N1C[C@H](Nc2ncnc3[nH]ccc23)CC[C@@H]1CO` (single isomer, unassigned) [Example 7], the half-life at 1 μM was greater than 5.56 h.

In the case of `C=CC(=O)N1CC[C@@H]2CCN(c3ncnc4[nH]ccc34)[C@@H]2C1` (single isomer, unassigned) [Example 8], the half-life at 1 μM stood at 3.2 h.

On to `C=CC(=O)N1C[C@H](Nc2ncnc3[nH]ccc23)CC[C@@H]1CC` (single isomer, unassigned) [Example 9], for which the half-life at 1 μM is greater than 6 h.

Consider `C=CC(=O)N1C[C@@H](C)C[C@@H](Nc2ncnc3[nH]ccc23)C1` (single isomer, unassigned) [Example 14], for which the half-life at 1 μM was greater than 4.18 h.

In the case of `C=CC(=O)N1CCC[C@@H](Nc2ncnc3[nH]cc(Cl)c23)C1` [Example 3, (R)-1-(3-((5-chloro-7H-pyrrolo[2,3-d]pyrimidin-4-yl)amino)piperidin-1-yl)prop-2-en-1-one], the half-life at 1 μM was 3.2 h.

Regarding `C=CC(=O)N1CC[C@H](F)[C@@H](Nc2ncnc3[nH]ccc23)C1` [Example 4, 1-((3S,4S)-3-((7H-pyrrolo[2,3-d]pyrimidin-4-yl)amino)-4-fluoropiperidin-1-yl)prop-2-en-1-one], the half-life at 1 μM was 2.33 h.

Turning to `C=CC(=O)N1C[C@H](C#N)C[C@@H](Nc2ncnc3[nH]ccc23)C1` [Example 6, (3R,5R)-5-((7H-pyrrolo[2,3-d]pyrimidin-4-yl)amino)-1-acryloylpiperidine-3-carbonitrile], the half-life at 1 μM worked out at 4.22 h.

For the compound `C=CC(=O)N1C[C@H](F)C[C@@H](Nc2ncnc3[nH]ccc23)C1` [Example 10, 1-((3R,5R)-3-((7H-pyrrolo[2,3-d]pyrimidin-4-yl)amino)-5-fluoropiperidin-1-yl)prop-2-en-1-one], the half-life at 1 μM turned out to be 2.72 h.

`C=CC(=O)N1CC[C@H](C)[C@@H](Nc2ncnc3[nH]ccc23)C1` [Example 11, 1-((3R,4S)-3-((7H-pyrrolo[2,3-d]pyrimidin-4-yl)amino)-4-methylpiperidin-1-yl)prop-2-en-1-one]: the half-life at 1 μM is greater than 4.93 h.

Consider `C=CC(=O)N1CCC[C@@H](Nc2ncnc3[nH]ccc23)C1` [Example 12, (R)-1-(3-((7H-Pyrrolo[2,3-d]pyrimidin-4-yl)amino)piperidin-1-yl)prop-2-en-1-one], for which the half-life at 1 μM was greater than 5.53 h.

For `C=CC(=O)N1C[C@H](Nc2ncnc3[nH]cc(CCOC)c23)CC[C@@H]1C` [Example 13], the half-life at 1 μM stood at 5.08 h.

Consider `C=CC(=O)N1C[C@@H](F)C[C@@H](Nc2ncnc3[nH]ccc23)C1` [Example 15, 1-((3R,5S)-3-((7H-Pyrrolo[2,3-d]pyrimidin-4-yl)amino)-5-fluoropiperidin-1-yl)prop-2-en-1-one], for which the half-life at 1 μM was 3.87 h.

For the compound `C=CC(=O)N1C[C@@H](O)C[C@@H](Nc2ncnc3[nH]ccc23)C1` [Example 17, 1-((3R,5S)-3-(7H-Pyrrolo[2,3-d]pyrimidin-4-ylamino)-5-hydroxypiperidin-1-yl)prop-2-en-1-one], the half-life at 1 μM was greater than 5.17 h.

Consider `C=CC(=O)N1C[C@H](Nc2ncnc3[nH]cc(Cl)c23)CC[C@@H]1C` [Example 18, 1-((2S,5R)-5-((5-Chloro-7H-pyrrolo[2,3-d]pyrimidin-4-yl)amino)-2-methylpiperidin-1-yl)prop-2-en-1-one], for which the half-life at 1 μM is greater than 5.31 h.

In the case of `C=CC(=O)N1C[C@H](Nc2ncnc3[nH]ccc23)C[C@H](OC)C1` [Example 19, 1-((3R,5S)-3-((7H-Pyrrolo[2,3-d]pyrimidin-4-yl)amino)-5-methoxypiperidin-1-yl)prop-2-en-1-one], the half-life at 1 μM came out at 3.51 h.

Regarding `C=CC(=O)N1CCC[C@@H](Nc2ncnc3[nH]cc(-c4cncc(F)c4)c23)C1` [Example 23, 1-[(3R)-3-{[5-(5-fluoropyridin-3-yl)-7H-pyrrolo[2,3-d]pyrimidin-4-yl]amino}piperidin-1-yl]prop-2-en-1-one], the half-life at 1 μM was greater than 6 h.

`C=CC(=O)N1CCC[C@@H](Nc2ncnc3[nH]cc(-c4cncc(OC)c4)c23)C1` [Example 24, 1-[(3R)-3-{[5-(5-methoxypyridin-3-yl)-7H-pyrrolo[2,3-d]pyrimidin-4-yl]amino}piperidin-1-yl]prop-2-en-1-one]: the half-life at 1 μM is greater than 6 h.

Regarding `C=CC(=O)N1CCC[C@@H](Nc2ncnc3[nH]cc(-c4cccnc4)c23)C1` [Example 26, 1-[(3R)-3-{[5-(pyridin-3-yl)-7H-pyrrolo[2,3-d]pyrimidin-4-yl]amino}piperidin-1-yl]prop-2-en-1-one], the half-life at 1 μM was greater than 6 h.

Consider `C=CC(=O)N1CCC[C@@H](Nc2ncnc3[nH]cc(-c4ccc(C(=O)N(C)C)cc4)c23)C1` [Example 27, 4-(4-{[(3R)-1-acryloylpiperidin-3-yl]amino}-7H-pyrrolo[2,3-d]pyrimidin-5-yl)-N,N-dimethylbenzamide], for which the half-life at 1 μM is 0.767 h.

On to `C=CC(=O)N1CCC[C@@H](Nc2ncnc3[nH]cc(-c4cnn(C)c4)c23)C1` [Example 28, 1-[(3R)-3-{[5-(1-methyl-1H-pyrazol-4-yl)-7H-pyrrolo[2,3-d]pyrimidin-4-yl]amino}piperidin-1-yl]prop-2-en-1-one], for which the half-life at 1 μM was greater than 6 h.

Take `C=CC(=O)N1CCC[C@@H](Nc2ncnc3[nH]cc(-c4ccc(OCC)nc4)c23)C1` [Example 33, 1-[(3R)-3-{[5-(6-ethoxypyridin-3-yl)-7H-pyrrolo[2,3-d]pyrimidin-4-yl]amino}piperidin-1-yl]prop-2-en-1-one]: the half-life at 1 μM was greater than 6 h.

On to `C=CC(=O)N1CCC[C@@H](Nc2ncnc3[nH]cc(-c4ccc5c(cnn5C)c4)c23)C1` [Example 34, 1-[(3R)-3-{[5-(1-methyl-1H-indazol-5-yl)-7H-pyrrolo[2,3-d]pyrimidin-4-yl]amino}piperidin-1-yl]prop-2-en-1-one], for which the half-life at 1 μM was greater than 6 h.

On to `C=CC(=O)N1CCC[C@@H](Nc2ncnc3[nH]cc(-c4ccc(N5CCOCC5)nc4)c23)C1` [Example 36, 1-[(3R)-3-({5-[6-(morpholin-4-yl)pyridin-3-yl]-7H-pyrrolo[2,3-d]pyrimidin-4-yl}amino)piperidin-1-yl]prop-2-en-1-one], for which the half-life at 1 μM is greater than 6 h.

For the origin of these results see patent US9617258B2, “Pyrrolo[2,3-d]pyrimidinyl, pyrrolo[2,3-b]pyrazinyl and pyrrolo[2,3-d]pyridinyl acrylamides” (Pfizer Inc., priority 2013, dated 2017).
